Data: patent publication US12208092B2, “Compositions and methods for administering paltusotine to patients with hepatic impairment” (CRINETICS PHARMACEUTICALS, INC., priority 2023, dated 2025)
Values after ≈ are worked out from the molar mass of the structure shown.

Legend:
[1] = tested on: plasma GH; assay: suppression of plasma GH after rGHRH challenge in rat; assay type: in vivo
Protocol: (§1) The in vivo pharmacological efficacy of paltusotine has been examined in rat and dog. In the rat, acute efficacy was evaluated by examining the suppression of plasma GH in response to a challenge with rat growth hormone releasing hormone (rGHRH). […] The effects of chronic, oral, 14-day administration of paltusotine were evaluated by measuring the sustained suppression of IGF-1 in the rat.

[2] = Phase 1 mass balance (ADME) study, single oral 20 mg [14C]-paltusotine, healthy male volunteers; assay type: in vivo, human
Protocol: This was a Phase I, open-label, single-dose study with a primary objective to characterize the absorption, distribution, metabolism, excretion, and mass balance of a single oral dose of 20 mg paltusotine containing 3.0 MBq (80 μCi) of [^14C]-labeled paltusotine in healthy male subjects.
Subjects received a single oral dose of 20 mg paltusotine as an oral solution containing 3.0 MBq (80 μCi) of radioactivity on Day 1. For oral dosing, the total volume ingested by the subject, including the study drug (10 mL), the rinse solutions (a total of 100 mL; 2 drug vial rinses with 50 mL of water per rinse), and tap water (130 mL), was 240 mL. The subjects had to ingest all solutions in the upright position within 2 minutes between 8 AM and 11 AM after an overnight fast of at least 10 hours. Fasting continued for a period of 4 hours after oral drug administration. The time of oral dosing administration was recorded, and the empty study drug vials were measured for residual radioactivity.
Blood samples were taken for the analysis of unlabeled paltusotine and [^14C]-paltusotine concentrations, and metabolite profiling. Blood samples for analysis of pharmacokinetic parameters of paltusotine in plasma, quantification of total radioactivity in blood and plasma, and metabolite profiling were collected at predose and 0.25, 0.5, 0.75, 1, 1.5, 2, 3, 4, 8, 12, 24, 48, 72, 120, and 168 hours postdose (and every 48 hours thereafter, if needed, to assess radioactivity).
Urine was collected for the analysis of total radioactivity, for quick counts of total radioactivity, and for metabolite profiling. The subjects were instructed to urinate completely before study drug administration and at the end of each collection interval. A baseline urine sample was collected within 12 hours prior to each study drug administration. Urine was collected for quantification of total radioactivity and metabolite profiling at predose, 3 intervals on Day 1 (at 0-4, 4-8, and 8-24 hours postdose), and every 24 hours thereafter until discharge criteria were met.
All fecal excretions were collected for the analysis of total radioactivity, for quick counts of total radioactivity, and for metabolite profiling. A baseline fecal sample was collected within 48 hours prior to study drug administration and could be collected at home. The baseline sample was taken from the last bowel movement before study drug intake. Feces were collected for quantification of total radioactivity and metabolite profiling at predose and in 24-hour intervals until discharge criteria were met.
Analysis of paltusotine in plasma was performed by Q2 Solutions (IQVIA, Itaca, NY, USA) using a validated liquid chromatography-tandem mass spectrometry (LC-MS/MS) method. The lower limit of quantitation (LLOQ) for paltusotine in plasma was 0.5 ng/mL.
Analysis of total ^14C radioactivity in plasma, whole blood, urine, and feces was performed at the bioanalytic laboratory of PRA Heath Sciences via a validated liquid scintillation counting method. The LLOQ for total reactivity was 3.36 ng-eq/mL in plasma and 5.6 ng-eq/mL in whole blood.
Metabolite profiling of plasma, urine, and feces was performed at WuXi AppTec (Cranbury, NJ, USA). For plasma, samples were pooled by timepoint (0.5, 1, 1.5, 2, 4, 8, 12, and 24 hours postdose) for metabolite profiling. In addition, plasma samples were pooled by participant across timepoints (0-48 hours) using the Hamilton method and analyzed to determine the quantitative profile of radiolabeled components. Prior to radio-profiling, plasma samples were extracted using solid phase extraction.
For urine and feces, samples were pooled by timepoint (0-8, 8-24, and 24-72 hours postdose). Prior to radio-profiling, urine samples were centrifuged to remove solids, and fecal homogenates were extracted with acetonitrile. Plasma and fecal extracts and urine supernatants were subjected to LC separation and fraction collection. […]

[3] = tested on: plasma IGF-1; assay: chronic oral 14-day administration, suppression of IGF-1 in rat; assay type: in vivo
Protocol: as §1

[4] = target: SST2 (Homo sapiens, UniProt P30874); assay: bias of G-protein activation versus β-arrestin activation; assay type: cell-based
Chain of SST2 (P30874 whole entry): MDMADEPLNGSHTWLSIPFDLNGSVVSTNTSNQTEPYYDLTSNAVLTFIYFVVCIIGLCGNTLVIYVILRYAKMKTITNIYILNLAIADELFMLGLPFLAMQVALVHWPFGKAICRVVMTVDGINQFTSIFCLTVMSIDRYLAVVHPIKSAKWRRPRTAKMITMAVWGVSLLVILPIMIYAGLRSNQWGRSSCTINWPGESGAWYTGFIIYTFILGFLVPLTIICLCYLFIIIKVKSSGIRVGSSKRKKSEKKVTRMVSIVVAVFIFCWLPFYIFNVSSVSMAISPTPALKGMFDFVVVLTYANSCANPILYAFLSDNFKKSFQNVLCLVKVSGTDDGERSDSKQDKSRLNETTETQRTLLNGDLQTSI

[5] = tested on: large panel of other known receptors, channels, and enzymes
[6] = tested on: other human somatostatin receptors
[7] = tested on: IGF-1; assay: suppression of IGF-1 in Beagle dogs, 7 days oral; assay type: in vivo
[8] = scaled from paltusotine and excretory metabolites

For `N#Cc1cccc(-c2ccc3ncc(-c4cc(F)cc(F)c4)c(N4CCC(N)CC4)c3c2)c1O` [paltusotine, 3-[4-(4-amino-1-piperidyl)-3-(3,5-difluorophenyl)-6-quinolyl]-2-hydroxybenzonitrile], the EC50 ([1]; Rattus norvegicus, po, read-out: plasma EC50 for GH suppression) was 0.011 µg/mL (≈ 0.0241 µM), the “doses that significantly and dose dependently suppressed GH relative to vehicle” value ([1]; oral, acute, rGHRH challenge) was at least 3 mg/kg and the component in feces ([2]; feces) was 39.7 % of the dose. For the same compound, the “drug-related components detected in plasma” value ([2]; human plasma 0-48 h) was “the only drug-related component detected in human plasma (0-48 h) was paltusotine”, the “administered radioactivity recovered in the feces” value ([2]; human, in vivo) was 90% and the “administered radioactivity recovered in the urine” value ([2]; human, in vivo) was 3.9%. For the same compound, the “dose excreted in the feces by metabolic profiling of excreta” value ([2]; human, in vivo) was “approximately 84%”, the “total radioactivity excreted over 120 h” value ([2]; human, in vivo) was 88 % of the administered dose and the “glucuronidation pathway share of metabolic clearance” value [2, 8] was 27.9 % of the dose. The “oxidative route share of metabolic clearance” value [2, 8] was 14.3%, the component in urine ([2]; urine) was 1.33 % of dose and the “unchanged paltusotine and metabolites excreted in urine” value ([2]; urine) was < 4 % of the total administered radioactivity. The “total mean recovery of administered radioactivity” value ([2]; urine and feces) was 94%, the “dose efficacious in suppressing plasma IGF-1 for up to 14 days” value [3] was over 10 mg/kg/day and the “bias for G-protein activation (lowering cAMP) compared to β-arrestin activation” value [4] was 75 fold. For the same compound, the “selectivity for SST2 over panel of other receptors, channels, and enzymes” value [5] was over 2000 fold, the “selectivity over other human somatostatin receptors” value [6] was over 4000 fold and the “oral doses with sustained suppression of IGF-1” value [7] was at least 6 mg/kg/day.
